This is an account of results in patent US20210395210A1, “INHIBITION OF BACTERIAL CHAPERONIN SYSTEMS” (THE TRUSTEES OF INDIANA UNIVERSITY, priority 2018, published 2021).

By IC50 is commonly meant the concentration that inhibits the measured activity by half.

Read-outs that look alike come from different tables or passages of the source. Some results are limits rather than exact numbers.

The subject of assay [1] is Pseudomonas aeruginosa (ATCC 10145). Description: Bacterial proliferation assay, P. aeruginosa. It counts as cell-based. An excerpt: (§1) Bacterial Strains: Enterococcus faecium—(Orla-Jensen) Schleifer and Kilpper-Balz strain NCTC 7171 (ATCC 19434); Drug sensitive Staphylococcus aureus—Rosenbranch strain Seattle 1945 (ATCC 25923); Methicillin resistant S. aureus (MRSA)—Rosenbach strain HPV107 (ATCC BAA-44); Klebsiella Pneumonia—(Schroeter) Trevisan strain NCTC 9633 (ATCC 13883); Acinetobacter baumannii—Bouvet and Grimont strain 2208 (ATCC 19606); Pseudomonas aeruginosa—(Schroeter) Migula strain NCTC 10332 (ATCC 10145); Enterobacter cloacae—E. cloacae, subsp. cloacae (Jordan) Hormaeche and Edwards strain CDC 442-68 (ATCC 13047).
(§2) Growth Media: All bacteria were grown in Brain Heart Infusion (BHI) broth/agar (Becton, Dickinson and Company). All liquid cultures were grown in BHI media supplemented with 25 mg/L Ca^2+ and 12.5 mg/L Mg^2+ to mimic free physiological concentrations of these cations. A 10 mg/mL Ca^2+ stock solution was prepared by dissolving 3.68 g of CaCl2.2H2O in 100 mL of deionized water, and a 10 mg/mL Mg^2+ stock solution was prepared by dissolving 8.36 g of MgCl2.6H2O in 100 mL deionized water. Both stock solutions were filter-sterilized using 0.2 μm pore size cellulose-acetate filters. 2.5 mL of the sterile 10 mg/mL Ca^2+ stock and 1.25 mL of the sterile 10 mg/mL Mg^2+ stock solutions were added per 1 L of autoclaved BHI medium to obtain 25 mg/L Ca^2+ and 12.5 mg/L Mg^2+ ions, respectively.
(§3) General Assay Protocol: Stock bacterial cultures were streaked onto BHI agar plates and grown overnight at 37° C. Fresh aliquots of broth were inoculated with single bacterial colonies and the cultures were grown overnight at 37° C. with shaking (240 rpm) in cation adjusted BHI media. The following morning, the overnight cultures were sub-cultured (1:5 dilution) into fresh aliquots of cation adjusted BHI media and grown at 37° C. for 1-2 hours with shaking. After 2 h, cultures were diluted into fresh media to achieve final OD600 readings of 0.017. Aliquots of these diluted cultures (30 μL) were added to clear, flat-bottom, 384-well polystyrene plates that were stamped with 0.5 μL of test compounds in 20 μL media. […] Plates were sealed with “Breathe Easy” oxygen permeable membranes (Diversified Biotech) and left to incubate at 37° C. without shaking (stagnant assay). OD600 nm readings were taken at either 6-8 h (S. aureus, MRSA, K. pneumonia, E. cloacae, and P. aeruginosa) or 24 h (E. faecium and A. baumannii). A second set of baseline control plates were prepared analogously, but without any bacteria added, to correct for possible compound absorbance and/or precipitation. Plates were then read at 600 nm using a Molecular Devices SpectraMax Plus384 microplate reader. […] Results presented represent the averages of EC50 values obtained from at quadriplicate (duplicate of duplicate) replicates.

The subject of assay [2] is Enterobacter cloacae (ATCC 13047). Description: Bacterial proliferation assay, E. cloacae. It counts as cell-based.
From the text: as §1, §2, §3

Assay [3] concerns Enterococcus faecium (ATCC 19434). Description: Bacterial proliferation assay, E. faecium. It counts as cell-based.
From the text: as §1, §2, §3

In assay [4] the test system is Klebsiella Pneumonia (ATCC 13883). Description: Bacterial proliferation assay, K. pneumoniae. The class given is cell-based.
From the text: as §1, §2, §3

Assay [5] has as its system Drug sensitive Staphylococcus aureus (ATCC 25923). Description: Bacterial proliferation assay, drug sensitive S. aureus. The class given is cell-based.
From the text: as §1, §2, §3

Assay [6] has as its system Methicillin resistant S. aureus (MRSA) (ATCC BAA-44). Description: Bacterial proliferation assay, MRSA. The class given is cell-based, Staphylococcus aureus. The settings on record: Staphylococcus aureus.
From the text: as §1, §2, §3

In the next assay the target is T1, native MDH (Sus scrofa, UniProt P00346).
T1 construct: soluble pig heart MDH from Roche, product #10127248001; purchased Roche 10127248001; host or cells: pig heart
T1 sequence (P00346 25-338): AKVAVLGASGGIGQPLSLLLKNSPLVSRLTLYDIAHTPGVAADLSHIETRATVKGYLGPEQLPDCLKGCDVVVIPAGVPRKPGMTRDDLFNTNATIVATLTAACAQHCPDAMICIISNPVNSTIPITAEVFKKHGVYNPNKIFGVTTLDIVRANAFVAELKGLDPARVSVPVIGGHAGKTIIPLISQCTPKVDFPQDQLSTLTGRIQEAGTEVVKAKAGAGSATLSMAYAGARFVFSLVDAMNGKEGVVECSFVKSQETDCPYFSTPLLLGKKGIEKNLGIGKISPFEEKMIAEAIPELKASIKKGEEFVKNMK
Description: Counter-screen for inhibition of native MDH enzymatic activity. The class given is biochemical, pig. The method, then: Reagent Preparations & Assay Protocol: This assay was performed as described above for the GroEL/ES-dMDH refolding assay; however, the assay protocol differed in the sequence of compound addition to the assay plates. The refolding reactions were allowed to proceed for 45 min at 37° C. in the absence of test compounds (complete refolding of MDH occurs), then quenched with the EDTA stock. Compounds were then pin-transferred into the plates after the EDTA quenching step; thus, compounds effects are only possible by inhibiting the fully-refolded MDH reporter substrate. […] A340 nm measurements were recorded at 0.5 minutes (start point) and at successive time points until the amount of NADH consumed reached ˜90% (end point, generally between 20-35 minutes). Compounds were tested in 8-point, 3-fold dilution series (62.5 μM to 29 nM during the reporter reaction) in clear, flat-bottom 384-well microtiter plates. DMSO was used as a negative control, and previously discovered native MDH inhibitors were used as positive controls. […] Results presented represent the averages of IC50 values obtained from at least quadriplicate (duplicate of duplicate) replicates.
Background: Counterscreens check selectivity or assay interference.

[7] abbreviates: ATCC10145, OD600 at 6-8 h, read-out: Bacterial Proliferation EC50 P. aeruginosa.
Setting [8] is: ATCC10145, log of EC50 (μM scale), with standard deviation, read-out: log(EC50) Bacterial Proliferation Assay P. aeruginosa (converted).
The mark [9] stands for this setting: ATCC13047, OD600 at 6-8 h, read-out: Bacterial Proliferation EC50 E. cloacae.
Where [10] appears, read: ATCC13047, log of EC50 (μM scale), with standard deviation, read-out: log(EC50) Bacterial Proliferation Assay E. cloacae (converted).
Where [11] appears, read: ATCC19434, OD600 at 24 h, read-out: Bacterial Proliferation EC50 E. faecium.
Setting [12] is: ATCC19434, log of EC50 (μM scale), with standard deviation, read-out: log(EC50) Bacterial Proliferation Assay C. faecium (converted).
Where [13] appears, read: ATCC13883, OD600 at 6-8 h, read-out: Bacterial Proliferation EC50 K. pneumoniae.
Setting [14] is: ATCC13883, log of EC50 (μM scale), with standard deviation, read-out: log(EC50) Bacterial Proliferation Assay K. pneumoniae (converted).
Setting [15] is: ATCC25923, OD600 at 6-8 h, read-out: Bacterial Proliferation EC50 S. aureus Sensitive.
[16] abbreviates: ATCC25923, log of EC50 (μM scale), with standard deviation, read-out: log(EC50) Bacterial Proliferation Assay S. aureus Sensitive (converted).
The mark [17] stands for this setting: MRSA, log of EC50 (μM scale), with standard deviation, read-out: log(EC50) Bacterial Proliferation Assay S. aureus Resistant (converted).
The mark [18] stands for this setting: log of IC50 (μM scale), with standard deviation, read-out: log(IC50) Native MDH Reporter (converted).
[19] abbreviates: read-out: Biochemical Assay IC50 Native MDH Reporter.
[20] abbreviates: ATCC10145, read-out: Bacterial Proliferation EC50 P. aeruginosa.
[21] abbreviates: ATCC10145, read-out: log(EC50) Bacterial Proliferation Assay P. aeruginosa (converted).
The mark [22] stands for this setting: ATCC13047, read-out: Bacterial Proliferation EC50 E. cloacae.
Where [23] appears, read: ATCC13047, read-out: log(EC50) Bacterial Proliferation Assay E. cloacae (converted).
[24] abbreviates: ATCC19434, 24 h, read-out: Bacterial Proliferation EC50 E. faecium.
[25] abbreviates: ATCC19434, read-out: log(EC50) Bacterial Proliferation Assay C. faecium (converted).
Where [26] appears, read: ATCC13883, read-out: Bacterial Proliferation EC50 K. pneumoniae.
The mark [27] stands for this setting: ATCC13883, read-out: log(EC50) Bacterial Proliferation Assay K. pneumoniae (converted).
The mark [28] stands for this setting: ATCC25923, read-out: Bacterial Proliferation EC50 S. aureus Sensitive.
Setting [29] is: ATCC25923, read-out: S. aureus Proliferation & Biofilm Assay EC50 Planktonic Growth.
Where [30] appears, read: ATCC25923, read-out: log(EC50) Bacterial Proliferation Assay S. aureus Sensitive (converted).
Setting [31] is: read-out: Bacterial Proliferation EC50 S. aureus Resistant.
The mark [32] stands for this setting: read-out: log(EC50) Bacterial Proliferation Assay S. aureus Resistant (converted).

As for `COc1ccccc1C(=O)Nc1ccc(Sc2nc3ccccc3s2)cc1` [Compound 36, N-(4-(Benzo[d]thiazol-2-ylthio)phenyl)-2-methoxybenzamide], the EC50 in assay [1] (setting [7]), in assay [1] (setting [8]), in assay [2] (setting [9]), in assay [2] (setting [10]), in assay [3] (setting [11]) and in assay [3] (setting [12]) was over 100 µM in each case. For the same compound, the EC50 in assay [4] (setting [13]), in assay [4] (setting [14]), in assay [5] (setting [15]), in assay [5] (setting [16]) and in assay [6] (setting [17]) was over 100 µM in each case. Moreover, the half-maximal inhibitory concentration (IC50) was over 63.1 µM at native MDH (setting [18]) and over 63 µM on native MDH (setting [19]).

For `O=C(Nc1ccc(Sc2nc3ccccc3s2)cc1)c1ccccc1O` [Compound 8, N-(4-(Benzo[d]thiazol-2-ylthio)phenyl)-2-hydroxybenzamide], the EC50 in assay [1] (setting [7]) was over 100 µM; in assay [1] (setting [8]), over 100 µM; in assay [2] (setting [9]) it was over 100 µM; in assay [2] (setting [10]), over 100 µM; in assay [3] (setting [11]) it was 67 µM; in assay [3] (setting [12]), 67.6 µM. Besides, the EC50 in assay [4] (setting [13]) is over 100 µM; in assay [4] (setting [14]) it was over 100 µM; in assay [5] (setting [15]) it was 0.2 µM; in assay [5] (setting [16]), 0.204 µM; in assay [6] (MRSA, OD600 at 6-8 h, read-out: Bacterial Proliferation EC50 S. aureus Resistant), 0.41 µM; in assay [6] (setting [17]) it was 0.407 µM. Also, the IC50 at native MDH (setting [18]) is over 63.1 µM; on native MDH (setting [19]) it was over 63 µM.

Regarding `O=C(Nc1cccc(Cl)c1)c1cc(Br)ccc1O` [Compound 11, 5-Bromo-N-(3-chlorophenyl)-2-hydroxybenzamide], the EC50 in assay [1] (setting [20]), in assay [1] (setting [21]), in assay [2] (setting [22]), in assay [2] (setting [23]), in assay [3] (setting [24]) and in assay [3] (setting [25]) was over 100 µM in each case. For the same compound, the EC50 is over 100 µM in assay [4] (setting [26]); over 100 µM in assay [4] (setting [27]); 0.46 µM in assay [5] (setting [28]); 0.46 µM in assay [5] (setting [29]); 0.457 µM in assay [5] (setting [30]); 0.53 µM in assay [6] (setting [31]). The EC50 in assay [6] (setting [32]) was 0.537 µM. Besides, the half-maximal inhibitory concentration (IC50) is over 63.1 µM on native MDH (setting [18]) and over 63 µM on native MDH (setting [19]).

Regarding `O=C(Nc1ccc(Sc2nc3ccccc3s2)c(Cl)c1)c1cc(Br)cc(Br)c1O` [Compound 1, N-(4-(Benzo[d]thiazol-2-ylthio)-3-chlorophenyl)-3,5-dibromo-2-hydroxybenzamide], the EC50 in assay [1] (setting [20]) is over 100 µM; in assay [1] (setting [21]) it was over 100 µM; in assay [2] (setting [22]), over 100 µM; in assay [2] (setting [23]) it was over 100 µM; in assay [3] (setting [24]), 0.52 µM; in assay [3] (setting [25]), 0.513 µM. The EC50 in assay [4] (setting [26]) is over 100 µM; in assay [4] (setting [27]), over 100 µM; in assay [5] (setting [28]), 0.36 µM; in assay [5] (setting [29]) it was 0.36 µM; in assay [5] (setting [30]), 0.363 µM; in assay [6] (setting [31]) it was 0.55 µM. Moreover, the EC50 in assay [6] (setting [32]) was 0.55 µM. In addition, the “inhibition of native MDH enzymatic activity (in words)” value on native MDH (false-positive counter-screen) was “inhibit native MDH”. Also, the “log(IC50) Native MDH Reporter” value on native MDH (log of IC50 (μM scale), with standard deviation) turned out to be 0.83 ± 0.25.

Turning to `COc1ccc(Br)cc1C(=O)Nc1cccc(Cl)c1` [Compound 39, 5-Bromo-N-(3-chlorophenyl)-2-methoxybenzamide], the EC50 in assay [1] (setting [7]), in assay [1] (setting [8]), in assay [2] (setting [9]), in assay [2] (setting [10]), in assay [3] (setting [11]) and in assay [3] (setting [12]) was over 100 µM each time. In addition, the EC50 in assay [4] (setting [13]), in assay [4] (setting [14]), in assay [5] (setting [15]), in assay [5] (setting [16]) and in assay [6] (setting [17]) was over 100 µM in each case. The IC50 at native MDH (setting [18]) was over 63.1 µM; on native MDH (setting [19]), over 63 µM.
